Legend:
Phakopsora pachyrhizi = test: Preventive fungicidal activity (5 days) against Phakopsora pachyrhizi on soya; format: in vivo; conditions: for P5 Activity: soya Zora, inoculation 5 days after treatment; for control of the pathogen: dose of 125 ppm
Puccinia Recondita = test: Preventive fungicidal activity (5 days) against Puccinia recondita on wheat; format: in vivo; conditions: wheat Salgemma, inoculation 5 days after treatment; for P5 Activity NT: parts developed during the test (NT); for P5 Activity T: parts treated directly (T)
Procedure: Leaves of wheat plants of the […] variety, grown in pots in a conditioned environment at 20° C. and 70% of Relative Humidity (RH), were treated by spraying both sides of the leaves with the compound under examination dispersed in a hydroacetone solution at 20% by volume of acetone. […] After spraying, the plants were kept in a humidity-saturated environment at a temperature ranging from 18 to 24° C. for the incubation period of the fungus (1 day). At the end of this period, the plants were put in a greenhouse with a relative humidity (RH) of 70% and at a temperature of 18-24° C. for 14 days At the end of this period, the external symptoms of the pathogen appeared and it was therefore possible to proceed with the visual evaluation of the intensity of the infection, both on the parts treated directly with the products (T) and on the parts developed during the implementation of the test (NT).

Plasmopara viticola = test: Preventive activity (7 days) against Plasmopara viticola on vines; format: in vivo; conditions: leaf spray, inoculation 7 days after treatment, vine Merlot, reduction of diseased leaf area vs untreated (100=complete effectiveness)
Procedure: Leaves of vine plants, Merlot variety, grown in pots, in a conditioned environment (20±1° C., 70% R.H.) were treated by spraying both sides of the leaves with the products in question. 7 days after the treatment, the plants were inoculated with an aqueous suspension of Plasmopara viticola spores (200,000 spores/cc) by spraying both sides of the leaves with a compressed air gun. After remaining 24 hours in a humidity-saturated environment, at 21° C., the plants were transferred for the incubation period (7 days) in a conditioned environment with 70% R.H. and at 24° C. After this period of time, the external symptoms of the pathogen appeared and it was therefore possible to evaluate the intensity of the infection.

Sclerotinia sclerotiorum = test: Antifungal activity in vitro (growth inhibition, 96-well absorbance); format: cell-based; conditions: 20° C., 72 hours (96 or 120 when necessary)
Zymoseptoria tritici = test: as above; format: cell-based; conditions: 20° C., 72 hours (96 or 120 when necessary)
Bipolaris sorokiniana = test: as above; format: cell-based; conditions: 20° C., 72 hours (96 or 120 when necessary)
Cercospora beticola = test: as above; format: cell-based; conditions: 20° C., 72 hours (96 or 120 when necessary)
Parastagonospora nodorum = test: as above; format: cell-based; conditions: 20° C., 72 hours (96 or 120 when necessary)
Alternaria alternata = format: cell-based; conditions: 20° C., 72 hours (96 or 120 when necessary)
Venturia inaequalis = format: cell-based; conditions: for In vitro antifungal activity, 50% effective doses (EC50): Venturia inaequalis, 20° C., 72 hours (96 or 120 when necessary)
Phytophthora infestans = format: cell-based; conditions: for In vitro antifungal activity, 50% effective doses (EC50): Phytophthora infestans, 20° C., 72 hours (96 or 120 when necessary)
Pythium ultimum = format: cell-based; conditions: for In vitro antifungal activity, 50% effective doses (EC50): Pythium ultimum, 20° C., 72 hours (96 or 120 when necessary)
Magnaporthe oryzae = format: cell-based; conditions: for In vitro antifungal activity, 50% effective doses (EC50): Magnaporthe oryzae, 20° C., 72 hours (96 or 120 when necessary)

SMILES: COc1ccnc(C(=O)N[C@@H](C)C(=O)O[C@@H](C)C(c2ccc(F)cc2)c2ccc(F)cc2)c1OC(C)=O [CR1, Florypicoxamid, reference compound]
- P5 Activity (Phakopsora pachyrhizi; 15 ppm): 100%
- P5 Activity (Phakopsora pachyrhizi; 30 ppm): 100%
- P5 Activity NT (Puccinia Recondita; 125 ppm): 90%
- P5 Activity T (Puccinia Recondita; 125 ppm): 99%
- P5 Activity NT (Puccinia Recondita; 250 ppm): 100%
- P5 Activity T (Puccinia Recondita; 250 ppm): 100%
- P7Activity (Plasmopara viticola; 30 ppm): 10%
- P7Activity (Plasmopara viticola; 125 ppm): 40%

SMILES: C[C@H](NC(=O)c1ccccc1O)C(=O)O[C@@H](C)C(c1ccc(F)cc1)c1ccc(F)cc1 [CR2, reference compound]
- In vitro antifungal activity, 50% effective doses (EC50) (Sclerotinia sclerotiorum): 5.38 µg/mL
- In vitro antifungal activity, 50% effective doses (EC50) (Zymoseptoria tritici): 0.14 µg/mL
- In vitro antifungal activity, 50% effective doses (EC50) (Bipolaris sorokiniana): 3.6 µg/mL
- In vitro antifungal activity, 50% effective doses (EC50) (Cercospora beticola): 0.48 µg/mL
- In vitro antifungal activity, 50% effective doses (EC50) (Parastagonospora nodorum): 0.24 µg/mL
- In vitro antifungal activity, 50% effective doses (EC50) (Alternaria alternata): 7.57 µg/mL

SMILES: CCCCCCCC(C)OC(=O)[C@H](C)NC(=O)c1cccc(NC=O)c1O (stereo partly drawn) [Compound 46, (2S)-2-(3-formamide-salicylamide)-propanoate of nonan-2-yl]
- P5 Activity (Phakopsora pachyrhizi; 15 ppm): 98%
- P5 Activity (Phakopsora pachyrhizi; 30 ppm): 99%
- control of the pathogen (Phakopsora pachyrhizi): complete control
- In vitro antifungal activity, 50% effective doses (EC50) (Venturia inaequalis): 0.25 µg/mL
- P5 Activity NT (Puccinia Recondita; 125 ppm): 90%
- P5 Activity T (Puccinia Recondita; 125 ppm): 98%
- P5 Activity NT (Puccinia Recondita; 250 ppm): 99%
- P5 Activity T (Puccinia Recondita; 250 ppm): 100%
- In vitro antifungal activity, 50% effective doses (EC50) (Sclerotinia sclerotiorum): 0.02 µg/mL
- P7Activity (Plasmopara viticola; 30 ppm): 100%
- P7Activity (Plasmopara viticola; 125 ppm): 100%
- In vitro antifungal activity, 50% effective doses (EC50) (Zymoseptoria tritici): 0.02 µg/mL
- In vitro antifungal activity, 50% effective doses (EC50) (Bipolaris sorokiniana): 2.68 µg/mL
- In vitro antifungal activity, 50% effective doses (EC50) (Phytophthora infestans): 0.04 µg/mL
- In vitro antifungal activity, 50% effective doses (EC50) (Cercospora beticola): 1.34 µg/mL
- In vitro antifungal activity, 50% effective doses (EC50) (Parastagonospora nodorum): 0.001 µg/mL

SMILES: CC(C)C(=O)OCOc1c(NC=O)cccc1C(=O)N[C@@H](C)C(=O)O[C@@H](C)C(c1ccc(F)cc1)c1ccc(F)cc1 [Compound 156, (2S)-2-[3-formamide-2-(methoxy-(2-methyl)propanoate)-benzamide] of (2S)-1,1-bis(4-fluorophenyl)propan-2-yl]
- P5 Activity (Phakopsora pachyrhizi; 15 ppm): 100%
- P5 Activity (Phakopsora pachyrhizi; 30 ppm): 100%
- control of the pathogen (Phakopsora pachyrhizi): complete control
- P5 Activity NT (Puccinia Recondita; 125 ppm): 93%
- P5 Activity T (Puccinia Recondita; 125 ppm): 98%
- P5 Activity NT (Puccinia Recondita; 250 ppm): 100%
- P5 Activity T (Puccinia Recondita; 250 ppm): 100%
- P7Activity (Plasmopara viticola; 30 ppm): 100%
- P7Activity (Plasmopara viticola; 125 ppm): 100%

SMILES: C[C@H](NC(=O)c1cccc(NC=O)c1O)C(=O)O[C@@H](C)C(c1ccc(F)cc1)c1ccc(F)cc1 [Compound 165, (2S)-2-(3-formamide-salicylamide) propanoate of (2S)-1,1-bis(4-fluorophenyl) propan-2-yl]
- P5 Activity (Phakopsora pachyrhizi; 15 ppm): 99%
- P5 Activity (Phakopsora pachyrhizi; 30 ppm): 100%
- control of the pathogen (Phakopsora pachyrhizi): complete control
- in vitro antifungal activity (in words) (Venturia inaequalis; V. inaequalis): active
- In vitro antifungal activity, 50% effective doses (EC50) (Venturia inaequalis): 0.18 µg/mL
- P5 Activity NT (Puccinia Recondita; 125 ppm): 88%
- P5 Activity T (Puccinia Recondita; 125 ppm): 95%
- P5 Activity NT (Puccinia Recondita; 250 ppm): 100%
- P5 Activity T (Puccinia Recondita; 250 ppm): 100%
- In vitro antifungal activity, 50% effective doses (EC50) (Sclerotinia sclerotiorum): 0.01 µg/mL
- in vitro antifungal activity (in words) (Pythium ultimum; P. ultimum): active
- In vitro antifungal activity, 50% effective doses (EC50) (Pythium ultimum): 1.54 µg/mL
- P7Activity (Plasmopara viticola; 30 ppm): 100%
- P7Activity (Plasmopara viticola; 125 ppm): 100%
- In vitro antifungal activity, 50% effective doses (EC50) (Zymoseptoria tritici): 0.007 µg/mL
- In vitro antifungal activity, 50% effective doses (EC50) (Bipolaris sorokiniana): 0.11 µg/mL
- in vitro antifungal activity (in words) (Magnaporthe oryzae; M. oryzae): active
- In vitro antifungal activity, 50% effective doses (EC50) (Magnaporthe oryzae): 0.2 µg/mL
- in vitro antifungal activity (in words) (Phytophthora infestans; P. infestans): active
- In vitro antifungal activity, 50% effective doses (EC50) (Phytophthora infestans): 0.05 µg/mL
- In vitro antifungal activity, 50% effective doses (EC50) (Cercospora beticola): 0.19 µg/mL
- In vitro antifungal activity, 50% effective doses (EC50) (Parastagonospora nodorum): 0.01 µg/mL
- In vitro antifungal activity, 50% effective doses (EC50) (Alternaria alternata): 0.33 µg/mL

SMILES: CCCCOC(=O)[C@H](C)OC(=O)[C@H](C)NC(=O)c1cccc(NC=O)c1O [Compound 236]
- In vitro antifungal activity, 50% effective doses (EC50) (Venturia inaequalis): 1.77 µg/mL
- In vitro antifungal activity, 50% effective doses (EC50) (Sclerotinia sclerotiorum): 0.18 µg/mL
- In vitro antifungal activity, 50% effective doses (EC50) (Zymoseptoria tritici): 0.095 µg/mL
- In vitro antifungal activity, 50% effective doses (EC50) (Bipolaris sorokiniana): 8.0 µg/mL
- In vitro antifungal activity, 50% effective doses (EC50) (Magnaporthe oryzae): 0.79 µg/mL
- In vitro antifungal activity, 50% effective doses (EC50) (Phytophthora infestans): 1.49 µg/mL
- In vitro antifungal activity, 50% effective doses (EC50) (Cercospora beticola): 8.64 µg/mL
- In vitro antifungal activity, 50% effective doses (EC50) (Parastagonospora nodorum): 0.009 µg/mL

SMILES: CCCCC(CC)COC(=O)[C@H](C)OC(=O)[C@H](C)NC(=O)c1cccc(NC=O)c1O (stereo partly shown) [Compound 239]
- In vitro antifungal activity, 50% effective doses (EC50) (Sclerotinia sclerotiorum): 0.081 µg/mL
- In vitro antifungal activity, 50% effective doses (EC50) (Pythium ultimum): 2.78 µg/mL
- In vitro antifungal activity, 50% effective doses (EC50) (Zymoseptoria tritici): 0.067 µg/mL
- In vitro antifungal activity, 50% effective doses (EC50) (Magnaporthe oryzae): 0.64 µg/mL
- In vitro antifungal activity, 50% effective doses (EC50) (Phytophthora infestans): 1.62 µg/mL
- In vitro antifungal activity, 50% effective doses (EC50) (Parastagonospora nodorum): 0.006 µg/mL

SMILES: C[C@H](NC(=O)c1cccc(NC=O)c1O)C(=O)O[C@@H](C)C(=O)OCc1ccccc1 [Compound 248]
- In vitro antifungal activity, 50% effective doses (EC50) (Zymoseptoria tritici): 0.17 µg/mL
- In vitro antifungal activity, 50% effective doses (EC50) (Phytophthora infestans): 1.14 µg/mL
- In vitro antifungal activity, 50% effective doses (EC50) (Parastagonospora nodorum): 0.008 µg/mL

SMILES: CCCCCCC[C@H](C)OC(=O)[C@H](C)NC(=O)c1cccc(NC=O)c1O [Compound 249]
- P5 Activity (Phakopsora pachyrhizi; 15 ppm): 98%
- P5 Activity (Phakopsora pachyrhizi; 30 ppm): 100%
- control of the pathogen (Phakopsora pachyrhizi): complete control
- P5 Activity NT (Puccinia Recondita; 125 ppm): 95%
- P5 Activity T (Puccinia Recondita; 125 ppm): 99%
- P5 Activity NT (Puccinia Recondita; 250 ppm): 100%
- P5 Activity T (Puccinia Recondita; 250 ppm): 100%
- P7Activity (Plasmopara viticola; 30 ppm): 100%
- P7Activity (Plasmopara viticola; 125 ppm): 100%

From patent US12454507B2, “Compounds having a fungicidal activity, their agronomic compositions and use thereof for the control of phytopathogenic fungi” (ISAGRO S.p.A., priority 2019, dated 2025)
